Structures can show the parent of a compound that is named as a salt.
Legend:
C. tropicalis ATCC 750 = experiment: Biofilm formation on bone cement (Palacos r) model implants in infected femur head; design: species or system Candida tropicalis; conditions: cements implanted inside infected holes; 2 days; single experiment, / = two implants
From the text: (§1) The poly(methyl methacrylate)-based bone cement with or without AMPs was implanted either inside infected holes or inside non-infected holes. In the latter case, the microbes infiltrated towards the implant from a hole made between them at roughly equal distance from each (Figure 3). This would simulate the authentic situation in which the pathogens can infect an orthopaedic implant by spreading through the bloodstream or contiguously from areas of infection. We evaluated the experiments on the basis of the amounts of microbes released from the biofilms supposedly formed on the surfaces of the implants that were removed from the infected bone samples.
(§2) The bone samples with bored holes inside were prepared and handled as above. The bone cement (Palacos®r, Hereaus Medical GmbH, Wehrheim, Germany) with AMP incorporated was prepared by swift and thorough mixing of the polymer powder component (poly-methylacrylate, methyl methacrylate, 125 mg) and AMP (10 mg) or antibiotic (10 mg) with the liquid monomer (methyl methacrylate, N,N-dimethyl-p-toluidine, hydroquinone and colorant E141, 70 μL). The resulting elastic paste was pressed using a 2 mL plastic syringe into two bored holes, where it polymerized and solidified. The paste without peptide for filling of the remaining two holes was prepared similarly by mixing the powder component (125 mg) and liquid component (68 μL). […]

E. faecalis = experiment: as above; design: species or system Enterococcus faecalis; conditions: cements implanted inside infected holes; 2 days; single experiment
From the text: as §1, §2

MRSA 6271 (ATCC 43300) = experiment: microbe, parasite or virus in culture; assay type: cell-based; conditions: Staphylococcus aureus, read-out: Antimicrobial Activity MIC, MRSA 6271
Description: (§3) Femur heads (ca. 70 pieces) taken from patients during hip replacement surgery were periodically purchased in the period between 2014–2017 as discarded from the bone tissue bank at University Hospital in Motol, Prague, Czech Republic. The reason for the replacements by artificial prosthesis was the worn out cartilage on the surface of their heads. Bone samples were stored at −80 °C under standard conditions of certified tissue banks. In the laboratory, they were kept at +5 °C overnight and then at room temperature for several hours before they could be used for the experiments. The experiments with this material were approved by the Ethics Committee for Multi-Centric Clinical Trials of the University Hospital Motol, Reference No: EK-655/15. Methicillin-resistant S. aureus (MRSA 6271) ATCC 43300 and P. aeruginosa (5482) ATCC 27853 were purchased from the Czech National Collection of Type Cultures, National Institute of Public Health, Prague, Czech Republic. Methicillin-resistant S. aureus (MRSA (L)) and P. aeruginosa (L) were obtained as multi-resistant clinical isolates from Liberec Regional Hospital, Liberec, Czech Republic. Methicillin-resistant S. aureus (MRSA (M)), E. faecalis and S. epidermidis were obtained as clinical isolates from University Hospital in Motol, Prague. Candida albicans (F7-39/IDE99) came from the mycological collection of the Faculty of Medicine, Palacky University, Olomouc, Czech Republic. C. albicans ATCC MYA-2876, C. tropicalis ATCC 750 and C. glabrata DSY565 were kindly provided by Dr. Hana Sychrová from the Institute of Physiology, Academy of Sciences of the Czech Republic, Prague. Vancomycin hydrochloride, gentamicin sulfate, ceftriaxone disodium salt, amphotericin B, fluconazole, and clotrimazole were obtained from Sigma-Aldrich, Prague, Czech Republic.
(§4) MIC values for peptides were established by observing growth of treated bacteria in HONEYCOMB 100-well microtiter plates (Helsinki, Finland) using a Bioscreen C instrument (Oy Growth Curves, Helsinki, Finland) as previously described. Haemolytic activity of peptides expressed as the concentration of a peptide required for lysis of 50% of human erythrocytes in the assay (LC50) was measured using a Tecan infinite M200 PRO reader (Tecan Austria GmbH, Grödig, Austria). Blood samples for determining haemolytic activity were obtained from healthy volunteers.

[1] = tested on: MRSA clinical isolate from Liberec Regional Hospital (MRSA (L)); experiment: microbe, parasite or virus in culture; assay type: cell-based; conditions: Staphylococcus aureus, MRSA, read-out: Antimicrobial Activity MIC, MRSA a
Description: as §3, §4

[2] = tested on: S. epidermidis clinical isolate (Motol); experiment: microbe, parasite or virus in culture; assay type: cell-based; conditions: Staphylococcus epidermidis, read-out: Antimicrobial Activity MIC, S. e. b
Description: as §3, §4

[3] = tested on: MRSA clinical isolate from University Hospital in Motol (MRSA (M)); experiment: microbe, parasite or virus in culture; assay type: cell-based; conditions: Staphylococcus aureus, MRSA, read-out: Antimicrobial Activity MIC, MRSA b
Description: as §3, §4

[4] = tested on: P. aeruginosa (5482) ATCC 27853; experiment: microbe, parasite or virus in culture; assay type: cell-based; conditions: Pseudomonas aeruginosa, ATCC27853, read-out: Antimicrobial Activity MIC, P. a. 5482
Description: as §3, §4

[5] = tested on: P. aeruginosa clinical isolate from Liberec Regional Hospital; experiment: microbe, parasite or virus in culture; assay type: cell-based; conditions: Pseudomonas aeruginosa, read-out: Antimicrobial Activity MIC, P. a. a
Description: as §3, §4

[6] = tested on: E. faecalis clinical isolate (Motol); experiment: microbe, parasite or virus in culture; assay type: cell-based; conditions: Enterococcus faecalis, read-out: Antimicrobial Activity MIC, E. f. b
Description: as §3, §4

[7] = tested on: MRSA clinical isolate from University Hospital in Motol (MRSA (M)); experiment: Biofilm formation on bone cement (Palacos r) model implants in infected femur head; design: species or system Staphylococcus aureus; conditions: cements implanted inside infected holes; Palacos r with peptide or antibiotic; 2 days; single experiment, / = two implants
From the text: as §1, §2

Row | SMILES | CFU/Implant, * C. tropicalis (C. tropicalis ATCC 750) | CFU/Implant, *E. f. (E. faecalis) | MIC (MRSA 6271 (ATCC 43300)) [µM] | MIC [1] [µM] | MIC [2] [µM] | MIC [3] [µM] | MIC [4] [µM] | MIC [5] [µM] | MIC [6] [µM] | CFU/Implant, *MRSA b [7]
1 | C[C@@H]1[C@H](O)[C@@H](C)/C=C/C=C/C=C/C=C/C=C/C=C/C=C/[C@H](O[C@@H]2O[C@H](C)[C@@H](O)[C@H](N)[C@@H]2O)C[C@@H]2O[C@](O)(C[C@@H](O)C[C@@H](O)[C@H](O)CC[C@@H](O)C[C@@H](O)CC(=O)O[C@H]1C)C[C@H](O)[C@H]2C(=O)O [Amphotericin B, amphotericin B] | 1.3 × 10^6 CFU/implant |  |  |  |  |  |  |  |  | 
2 | CN[C@H](CC(C)C)C(=O)N[C@H]1C(=O)N[C@@H](CC(N)=O)C(=O)N[C@H]2C(=O)N[C@H]3C(=O)N[C@H](C(=O)N[C@H](C(=O)O)c4cc(O)cc(O)c4-c4cc3ccc4O)[C@H](O)c3ccc(c(Cl)c3)Oc3cc2cc(c3O[C@@H]2O[C@H](CO)[C@@H](O)[C@H](O)[C@H]2O[C@H]2C[C@](C)(N)[C@H](O)[C@H](C)O2)Oc2ccc(cc2Cl)[C@H]1O [Vancomycin, Vancomycin hydrochloride, reference compound] |  | 4.0 × 10^6 CFU/implant | 0.9 | 1.1 | 1.5 | 1.1 | > 200 | > 320 | 1.3 | 4.0 × 10^6 CFU/implant

Source: publication PMC5874716, “Antimicrobial Peptides for Topical Treatment of Osteomyelitis and Implant-Related Infections: Study in the Spongy Bone” (Pharmaceuticals, 2018)
